For eleven compounds, IC50 results are on record in patent US5631222A, “Endothelin-antagonizing peptide” (Kyowa Hakko Kogyo Co., Ltd., priority 1993, dated 1997).

Structures are written as SMILES. Positions of bridges follow the written chain, without caps; N, C: chain ends. Non-standard residues stand in square brackets, D forms with d. Residues, ends and D or L forms follow the SMILES beside them. 2Thi = N[C@@H](Cc1cccs1)C(=O)O; Cha = N[C@@H](CC1CCCCC1)C(=O)O; Nva = CCC[C@H](N)C(=O)O

This test concerns the target T1, endothelin receptor (Bos taurus, UniProt P28088).
T1 construct: the suspension was used as a membrane fraction liquid; from tissue; host or cells: bovine cerebellum membrane fraction
T1 sequence (P28088 27-441): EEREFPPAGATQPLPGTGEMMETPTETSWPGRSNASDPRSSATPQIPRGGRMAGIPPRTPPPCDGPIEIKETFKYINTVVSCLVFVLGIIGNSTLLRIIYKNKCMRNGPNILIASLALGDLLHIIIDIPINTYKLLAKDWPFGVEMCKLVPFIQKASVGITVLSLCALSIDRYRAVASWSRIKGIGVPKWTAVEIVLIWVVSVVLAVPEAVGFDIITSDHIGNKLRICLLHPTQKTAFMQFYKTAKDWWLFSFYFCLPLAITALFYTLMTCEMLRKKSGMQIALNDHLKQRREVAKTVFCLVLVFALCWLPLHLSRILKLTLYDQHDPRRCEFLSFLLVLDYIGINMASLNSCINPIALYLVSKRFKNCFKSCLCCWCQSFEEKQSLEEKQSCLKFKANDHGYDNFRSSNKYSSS
Briefly: Endothelin receptor-antagonizing activity: inhibition of 125I-endothelin-1 binding to bovine cerebellum membrane fraction. The note with it: 125I-Endothelin-1, bovine cerebellum membrane fraction, 25° C. for 2 hours; read-out: IC50: Concentration causing 50% inhibition of endothelin1 binding. Here is the method:
Bovine cerebellum tissue was homogenized at 4° C. by using POLYTRON (type PT10/35, manufactured by Kinematic Gmbh Co.) in a buffer solution A (1 mM NaHCO3, 5 mM ethylenediaminetetraacetic acid, 5 μg/ml leupeptin, 5 μg/ml pepstatin A, 40 μM phenylmethylsulfonyl fluoride, pH 8.3).
The obtained suspension was centrifuged for 10 minutes at 8,000 G and 4° C., and the resulting supernatant was centrifuged for 60 minutes at 40,000 G and 4° C. to obtain pellets. The obtained pellets were suspended in a buffer solution A and again centrifuged for 60 minutes at 40,000 G and 4° C. The resulting solid substance was prepared as a suspension containing 2 mg/ml of protein, and the suspension was used as a membrane fraction liquid. […] These mixtures were incubated at 25° C. for 2 hours, and then filtered with a GF/B glass filter (produced by Whatman Co.). […] The inhibition ratio against endothelin receptor binding activity was calculated according to the following equation:
Inhibition ratio (%)=(C-A/C-B)×100
B: Radioactivity in the presence of unlabelled endothelin-1
C: Radioactivity in the absence of both of the compound shown in Table 2 and unlabelled endothelin-1
Consider `CC[C@H](C)[C@H](NC(=O)[C@H](CC(=O)O)NC(=O)[C@H](CC(C)C)NC(=O)[C@H](Cc1c[nH]cn1)NC(=O)[C@H](C)NC(=O)[C@H](Cc1ccccc1)NC(=O)[C@H](Cc1ccc(O)cc1)NC(=O)[C@@H](NC(=O)[C@H](Cc1c[nH]c2ccccc12)NC(=O)[C@@H]1CSSC[C@H](N)C(=O)N[C@@H](CC(N)=O)C(=O)N[C@@H](Cc2c[nH]c3ccccc23)C(=O)N[C@@H](Cc2c[nH]cn2)C(=O)NCC(=O)N[C@@H]([C@@H](C)O)C(=O)N[C@@H](C)C(=O)N2CCC[C@H]2C(=O)N1)C(C)C)C(=O)N[C@H](C(=O)N[C@@H](Cc1c[nH]c2ccccc12)C(=O)O)[C@@H](C)CC` [Compound 33] (H-CNWHGTAPCWVYFAHLDIIW-OH; disulfide 1-9), for which the IC50 worked out at 0.16 nM.

Consider `CC[C@H](C)[C@H](NC(=O)[C@H](Cc1cccs1)NC(=O)[C@@H](NC(=O)[C@H](CC(C)C)NC(=O)[C@H](Cc1c[nH]cn1)NC(=O)[C@H](C)NC(=O)[C@H](Cc1ccccc1)NC(=O)[C@H](Cc1ccc(O)cc1)NC(=O)[C@@H](NC(=O)[C@H](Cc1c[nH]c2ccccc12)NC(=O)[C@@H]1CSSC[C@H](N)C(=O)N[C@@H](CC(=O)O)C(=O)N[C@@H](Cc2c[nH]c3ccccc23)C(=O)N[C@@H](CCCCN)C(=O)NCC(=O)N[C@@H]([C@@H](C)O)C(=O)N[C@@H](CO)C(=O)N2CCC[C@H]2C(=O)N1)C(C)C)[C@@H](C)O)C(=O)N[C@@H](Cc1c[nH]c2ccccc12)C(=O)O` [Compound 35] (H-CDWKGTSPCWVYFAHLT[2Thi]IW-OH; disulfide 1-9), for which the IC50 was determined as 1.6 nM. Under `CC[C@H](C)[C@H](NC(=O)[C@H](CC(C)C)NC(=O)[C@@H](NC(=O)[C@H](CC(C)C)NC(=O)[C@H](Cc1c[nH]cn1)NC(=O)[C@H](C)NC(=O)[C@H](Cc1ccccc1)NC(=O)[C@H](Cc1ccc(O)cc1)NC(=O)[C@@H](NC(=O)[C@H](Cc1c[nH]c2ccccc12)NC(=O)[C@@H]1CSSC[C@H](N)C(=O)N[C@@H](CC(N)=O)C(=O)N[C@@H](Cc2c[nH]c3ccccc23)C(=O)N[C@@H](Cc2c[nH]cn2)C(=O)NCC(=O)N[C@@H]([C@@H](C)O)C(=O)N[C@@H](C)C(=O)N2CCC[C@H]2C(=O)N1)C(C)C)[C@@H](C)O)C(=O)N[C@@H](Cc1c[nH]c2ccccc12)C(=O)O` [Compound 37] (H-CNWHGTAPCWVYFAHLTLIW-OH; disulfide 1-9) stands 8.7 nM. As for `CC[C@H](C)[C@H](NC(=O)[C@H](CC1CCCCC1)NC(=O)[C@@H](NC(=O)[C@H](CC(C)C)NC(=O)[C@H](Cc1c[nH]cn1)NC(=O)[C@H](C)NC(=O)[C@H](Cc1ccccc1)NC(=O)[C@H](Cc1ccc(O)cc1)NC(=O)[C@@H](NC(=O)[C@H](Cc1c[nH]c2ccccc12)NC(=O)[C@@H]1CSSC[C@H](N)C(=O)N[C@@H](CC(N)=O)C(=O)N[C@@H](Cc2c[nH]c3ccccc23)C(=O)N[C@@H](Cc2c[nH]cn2)C(=O)NCC(=O)N[C@@H]([C@@H](C)O)C(=O)N[C@@H](C)C(=O)N2CCC[C@H]2C(=O)N1)C(C)C)[C@@H](C)O)C(=O)N[C@@H](Cc1c[nH]c2ccccc12)C(=O)O` [Compound 39] (H-CNWHGTAPCWVYFAHLT[Cha]IW-OH; disulfide 1-9), the IC50 worked out at 280 nM. Take `CC[C@H](C)[C@H](NC(=O)[C@H](CC(C)C)NC(=O)[C@@H](NC(=O)[C@H](CC(C)C)NC(=O)[C@H](Cc1c[nH]cn1)NC(=O)[C@H](C)NC(=O)[C@H](Cc1ccccc1)NC(=O)[C@H](Cc1ccc(O)cc1)NC(=O)[C@@H](NC(=O)[C@H](Cc1c[nH]c2ccccc12)NC(=O)[C@@H]1CC(=O)NCC(=O)N[C@@H](CC(N)=O)C(=O)N[C@@H](Cc2c[nH]c3ccccc23)C(=O)N[C@@H](Cc2c[nH]cn2)C(=O)NCC(=O)N[C@@H]([C@@H](C)O)C(=O)N[C@@H](C)C(=O)N2CCC[C@H]2C(=O)N1)C(C)C)[C@@H](C)O)C(=O)N[C@@H](Cc1c[nH]c2ccccc12)C(=O)O` [Compound 40] (GNWHGTAPDWVYFAHLTLIW-OH; lactam N-9): the IC50 amounted to 34 nM. With `CC[C@H](C)[C@H](NC(=O)[C@H](Cc1cccs1)NC(=O)[C@@H](NC(=O)[C@H](CC(C)C)NC(=O)[C@H](Cc1c[nH]cn1)NC(=O)[C@H](C)NC(=O)[C@H](Cc1ccccc1)NC(=O)[C@H](Cc1ccc(O)cc1)NC(=O)[C@@H](NC(=O)[C@H](Cc1c[nH]c2ccccc12)NC(=O)[C@@H]1CC(=O)NCC(=O)N[C@@H](CC(N)=O)C(=O)N[C@@H](Cc2c[nH]c3ccccc23)C(=O)N[C@@H](Cc2c[nH]cn2)C(=O)NCC(=O)N[C@@H]([C@@H](C)O)C(=O)N[C@@H](C)C(=O)N2CCC[C@H]2C(=O)N1)C(C)C)[C@@H](C)O)C(=O)N[C@@H](Cc1c[nH]c2ccccc12)C(=O)O` [Compound 41] (GNWHGTAPDWVYFAHLT[2Thi]IW-OH; lactam N-9), the IC50 was 2.5 nM. To `CC[C@H](C)[C@H](NC(=O)[C@H](Cc1cccs1)NC(=O)[C@@H](NC(=O)[C@H](CC(C)C)NC(=O)[C@H](Cc1c[nH]cn1)NC(=O)[C@H](C)NC(=O)[C@H](Cc1ccccc1)NC(=O)[C@H](Cc1ccc(O)cc1)NC(=O)[C@@H](NC(=O)[C@H](Cc1c[nH]c2ccccc12)NC(=O)[C@H](CC(=O)O)NC(=O)[C@@H]1CCCN1C(=O)[C@H](C)NC(=O)[C@@H](NC(=O)CNC(=O)[C@H](Cc1c[nH]cn1)NC(=O)[C@H](Cc1c[nH]c2ccccc12)NC(=O)[C@H](CC(N)=O)NC(=O)CN)[C@@H](C)O)C(C)C)[C@@H](C)O)C(=O)N[C@H](Cc1c[nH]c2ccccc12)C(=O)O` [Compound 42, HGlyAsnTrpHisGlyThrAlaProAspTrpValTyrPheAlaHisLeuThrThiIleD-TrpOH] (H-GNWHGTAPDWVYFAHLT[2Thi]I[dW]-OH) belongs 210 nM.

`CCC[C@H](NC(=O)[C@@H](Cc1c[nH]c2ccccc12)NC(=O)[C@H](C)NC(=O)[C@H](Cc1ccccc1)NC(=O)[C@H](Cc1ccc(O)cc1)NC(=O)[C@@H](NC(=O)[C@H](Cc1c[nH]c2ccccc12)NC(=O)[C@H](CC(=O)O)NC(=O)[C@@H]1CCCN1C(=O)[C@H](C)NC(=O)[C@@H](NC(=O)CNC(=O)[C@H](Cc1c[nH]cn1)NC(=O)[C@H](Cc1c[nH]c2ccccc12)NC(=O)[C@H](CC(N)=O)NC(=O)CN)[C@@H](C)O)C(C)C)C(=O)N[C@@H](CCC(=O)O)C(=O)N[C@H](C(=O)N[C@@H](C(=O)N[C@@H](Cc1c[nH]c2ccccc12)C(=O)O)[C@H](C)CC)[C@@H](C)CC` [Compound 44, HGlyAsnTrpHisGlyThrAlaProAspTrpValTyrPheAlaD-TrpNvaGluIleD-IleTrpOH] (H-GNWHGTAPDWVYFA[dW][Nva]EI[dI]W-OH): the IC50 worked out at 290 nM. Consider `CC[C@H](C)[C@H](NC(=O)[C@H](CCSC)NC(=O)[C@H](CO)NC(=O)[C@H](CC(C)C)NC(=O)[C@H](Cc1c[nH]cn1)NC(=O)[C@H](C)NC(=O)[C@@H](Cc1ccccc1)NC(=O)[C@H](Cc1ccc(O)cc1)NC(=O)[C@@H](NC(=O)[C@H](Cc1c[nH]c2ccccc12)NC(=O)[C@H](CC(=O)O)NC(=O)[C@@H]1CCCN1C(=O)[C@H](C)NC(=O)[C@@H](NC(=O)CNC(=O)[C@H](Cc1c[nH]cn1)NC(=O)[C@H](Cc1c[nH]c2ccccc12)NC(=O)[C@H](CC(N)=O)NC(=O)CN)[C@@H](C)O)C(C)C)C(=O)N[C@@H](Cc1c[nH]c2ccccc12)C(=O)O` [Compound 45, HGlyAsnTrpHisGlyThrAlaProAspTrpValTyrD-PheAlaHisLeuSerMetIleTrpOH] (H-GNWHGTAPDWVY[dF]AHLSMIW-OH), for which the IC50 is 3.3 nM. Under `CC[C@H](C)[C@H](NC(=O)[C@H](Cc1cccs1)NC(=O)[C@@H](NC(=O)[C@H](CC(C)C)NC(=O)[C@H](Cc1c[nH]cn1)NC(=O)[C@H](C)NC(=O)[C@H](Cc1ccccc1)NC(=O)[C@H](Cc1ccc(O)cc1)NC(=O)[C@@H]1CCCN1C(=O)[C@H](Cc1c[nH]c2ccccc12)NC(=O)[C@H](CC(=O)O)NC(=O)[C@@H]1CCCN1C(=O)[C@H](C)NC(=O)[C@@H](NC(=O)CNC(=O)[C@H](Cc1c[nH]cn1)NC(=O)[C@H](Cc1c[nH]c2ccccc12)NC(=O)[C@H](CC(N)=O)NC(=O)CN)[C@@H](C)O)[C@@H](C)O)C(=O)N[C@@H](Cc1c[nH]c2ccccc12)C(=O)O` [Compound 48, HGlyAsnTrpHisGlyThrAlaProAspTrpProTyrPheAlaHisLeuThrThiIleTrpOH] (H-GNWHGTAPDWPYFAHLT[2Thi]IW-OH) stands 5 nM; under `CC[C@H](C)[C@@H]1NC(=O)[C@H](Cc2ccccc2)NC(=O)CNC(=O)C[C@@H](C(=O)N[C@@H](Cc2c[nH]c3ccccc23)C(=O)N[C@H](C(=O)N[C@@H](Cc2ccc(O)cc2)C(=O)N[C@@H](Cc2ccccc2)C(=O)N[C@@H](C)C(=O)N[C@@H](Cc2c[nH]cn2)C(=O)N[C@@H](CC(C)C)C(=O)N[C@@H](CC(=O)O)C(=O)N[C@H](C(=O)N[C@H](C(=O)N[C@@H](Cc2c[nH]c3ccccc23)C(=O)O)[C@@H](C)CC)[C@@H](C)CC)C(C)C)NC(=O)[C@H](CC(N)=O)NC(=O)CNC(=O)[C@H](Cc2c[nH]c3ccccc23)NC(=O)CNC1=O` [Compound 51] (GFIGWGNDWVYFAHLDIIW-OH; lactam N-8), 3.3 nM.
